Test results taken from patent US20090023666A1, “Modulators of Hypoxia Inducible Factor-1 and Related Uses” (priority 2006, published 2009).
“Also recorded” adds a separate entry of the source. Read-outs that look alike come from different tables or passages of the source.

What was measured:
[1] = tested on: HIF-1α sensitive A549 sentinel line; test: HIF-1α sensitive A549 sentinel line reporter activity (FACS); assay type: cell-based; settings: 24 hours, 5 nM (FIG. 4)
Protocol: FIGS. 4A-4D are graphs depicting FACS analysis of beta-gal activity in an A549 sentinel line treated with 5 nM of BNC4 (FIG. 4A), BP228 (FIG. 4B), and BP244 (FIG. 4C) in comparison to vehicle only (shown as the shaded portion of the graph) for 24 hours. The graphs indicate frequency of cells (Y-axis) and intensity of fluorescence (X-axis) as measure of pathway activity. The bar chart (FIG. 4D) depicts the relative median fluorescent units of FACS curves.
By using the HIF-1α sensitive A549 sentinel line, the cell line was incubated with either BNC4, BP228 or BP244 for 24 hours and reporter activity was measured by FACS analysis.

[2] = tested on: A549; test: cells; assay type: cell-based; settings: Homo sapiens
Protocol: (§1) FIG. 8 is a graph depicting the mRNA levels of α-1 and α-3 isoforms quantitated by real time RT-PCR (TaqMan) using fluorescent labeled TaqMan probes. Anti-proliferation (IC50 values) activity of BNC4 on indicated cell lines was determined by MTS assay. Total alpha levels (al+a3) were plotted against (1/IC50) X100 values.

[3] = tested on: Caki-1 (CAKI); test: cells; assay type: cell-based; settings: Homo sapiens
Protocol: as §1

[4] = tested on: HOP-18; test: Anti-proliferative activity, HOP-18; assay type: cell-based; settings: Homo sapiens
Protocol: as §1

[5] = tested on: RPMI-8226; test: Anti-proliferative activity, RPMI-8226; assay type: cell-based; settings: Homo sapiens
Protocol: as §1

[6] = tested on: P388; test: Anti-proliferative activity, P388; assay type: cell-based; settings: Mus musculus
Protocol: as §1

[7] = tested on: SNB-78; test: Anti-proliferative activity, SNB-78; assay type: cell-based; settings: Homo sapiens
Protocol: as §1

[8] = tested on: HIF-1α and HIF-2α; test: Induction of HIF-1α and HIF-2α during hypoxia (Western blotting); assay type: cell-based; settings: for HIF-1α and HIF-2α protein expression: Caki-1, A549, Panc-1, Hep3B cells, hypoxia (1% O2) 4 hours, BNC4 0.1 μM, BP228 and BP244 0.1 and 1.0 μM; for protein expression of HIF-1β, NIK, Hsp90, DR4, Bcl-2 and β-actin: same cells and treatment, specificity
Protocol: Caki-1 (renal cancer), A549 (lung cancer), Panc-1 (pancreatic cancer) and Hep3B (liver cancer) cells were treated with BNC4, BP228 and BP244 under hypoxic conditions. The cells were treated with indicated each compound for 4 hours under normoxic (N, 20% O2) or hypoxic (H, 1% O2) conditions. Expression of HIF-1α, HIF-1β and β-actin and other proteins was analyzed by Western blotting. The HIF-1α and HIF-2α protein levels increased in cells cultured under these conditions for 4 hours without any treatment. […] The inhibition was specific as levels of constitutively expressed HIF-1β were not affected by any of the drugs.

[9] = tested on: A549 sentinel line; test: Hypoxic stress response induced by cytotoxic agents in A549 sentinel line; assay type: cell-based; settings: in the presence of Gemcitabine
Source text: FIGS. 7A-7E are graphs depicting the stress response of A549 Sentinel Line induced by treatment with Gemcitabine (FIG. 7A) or Gemcitabine in the presence of indicated compound (FIG. 7B-7D). Untreated (control) sample is shown in shadow. […] Similar results can be achieved for other chemotherapeutic agents which induce hypoxic stress, such as paclitaxel, carboplatin, and mitoxantrone.
Similar results were obtained with carboplatin (not shown).

[10] = tested on: Na-K-ATPase; test: Na-K-ATPase enzyme assay (inorganic phosphate liberated from ATP), pig brain; assay type: biochemical; settings: pig brain
Protocol: Compounds were tested for their activity on Na-K-ATPase enzyme in an in vitro enzyme assay. The ATPase activity was assayed as the amount of inorganic phosphate liberated from ATP by Dog Kidney or Porcine cerebral cortex Na-K-ATPase.

[11] = tested on: Caki-1 tumors; test: In vivo activity against renal cancer cell line Caki-1 xenograft; settings: Caki-1 bearing nude mice
Protocol: Female nude mice (nu/nu) between 5 and 6 weeks of age weighing approximately 20 g were implanted subcutaneously (s.c.) by trocar with fragments of human tumors harvested from s.c. grown tumors in nude mice hosts. When the tumors were approximately 60-75 mg in size (about 10-15 days following inoculation), the animals were pair-matched into treatment and control groups. Each group contained 8-10 mice. The administration of drugs or controls began on the day the animals were pair-matched (Day 1). Pumps (Alzet® Model 2002) with a flow rate of 0.5 μl/hr were implanted s.c. between the shoulder blades of each mice. Mice were weighed and tumor measurements were obtained using calipers twice weekly, starting Day 1. These tumor measurements were converted to mg tumor weight by standard formula, (W^2XL)/2. The experiment was terminated when the control group tumor size reached an average of about 1 gram. Upon termination, the mice were weighed, sacrificed and their tumors excised. The tumors were weighed and the mean tumor weight per group was calculated.

[12] = tested on: HIF-1α; test: Inhibition of hypoxia-mediated HIF-1α induction (immunoblotting); assay type: cell-based, human; settings: Caki-1 or Panc-1 cells under hypoxia
[13] = tested on: HIF-1α; test: Inhibition of HIF-1α induced under normoxia by PHD inhibitor L-mimosone (Western blotting); assay type: cell-based; settings: Hep3B cells, 200 μM L-mimosone 18 hours
Protocol: Abundance of HIF1α and β-actin was determined by Western blotting.

[14] = cited from earlier work
[15] = A549, read-out: Anti-Proliferative activity IC50
[16] = CAKI-1, read-out: Anti-Proliferative activity IC50
[17] = HOP-18, read-out: Anti-Proliferative activity IC50
[18] = RPMI-8226, read-out: Anti-Proliferative activity IC50
[19] = P388, read-out: Anti-Proliferative activity IC50
[20] = SNB-78, read-out: Anti-Proliferative activity IC50

Row | SMILES | reporter activity in A549 sentinel line [1] | IC50 [2, 15] [µM] | IC50 [3, 16] [µM] | IC50 [4, 17] [µM] | IC50 [5, 18] [µM] | IC50 [6, 19] [µM] | IC50 [7, 20] [µM] | HIF-1α and HIF-2α protein expression [8] | protein expression of HIF-1β, NIK, Hsp90, DR4, Bcl-2 and β-actin [8] | stress response in A549 sentinel line induced by Gemcitabine [9] | other results
1 | C[C@]12CC/C(=N\OCCN3CCCCC3)C=C1CC[C@@H]1[C@@H]2CC[C@]2(C)[C@@H](c3ccc(=O)oc3)CC[C@]12O [BP228] | active in inhibiting the reporter activity | 0.0073 | 0.013 | 0.0189 | 0.0255 | > 1 | 0.0159 | inhibition of hypoxia-mediated HIF-1α induction; also recorded: almost complete inhibition | no effect | can inhibit the stress response | 
2 | C[C@@H]1O[C@@H](O[C@@H]2C=C3CC[C@@H]4[C@H](CC[C@]5(C)[C@@H](c6ccc(=O)oc6)CC[C@]45O)[C@@]3(C)CC2)[C@H](O)[C@H](O)[C@H]1N [BP244] | active in inhibiting the reporter activity | 0.0048 | 0.008 | 0.0073 | 0.0107 | > 1 | 0.0077 | inhibition of hypoxia-mediated HIF-1α induction; also recorded: almost complete inhibition | no effect | can inhibit the stress response | activity on Na-K-ATPase relative to BP228 [10]: twice as active as BP228; IC50 ([10]; FIG. 9, read-out: IC50, Na-K-ATPase): 98 µM; adverse effects ([11]; 15 mg/ml pump): without any adverse effects; tumor growth inhibition (TGI) ([11]; 15 mg/ml, s.c. Alzet pump 0.5 μl/hr): 83%
3 | C[C@@H]1O[C@@H](O[C@@H]2C=C3CC[C@@H]4[C@H](CC[C@]5(C)[C@@H](c6ccc(=O)oc6)CC[C@]45O)[C@@]3(C)CC2)[C@H](O)[C@H](O)[C@H]1O [BNC4, proscillaridin, reference compound] | active in inhibiting the reporter activity |  |  |  |  |  |  | inhibition of hypoxia-mediated HIF-1α induction; also recorded: almost complete inhibition | no effect | can inhibit the stress response | potency in inhibiting HIF-1α expression relative to BNC1 [12]: about 10 times; HIF-1α accumulation by L-mimosone [13]: blocks HIF-1α induction; also recorded: eliminated HIF-1α accumulation by L-mimosone; IC50 ([2]; A549, NSCL, read-out: Anti-Proliferative activity IC50): 0.0035 µM; IC50 ([3]; CAKI-1, CAKI, Renal, read-out: Anti-Proliferative activity IC50): 0.0075 µM; IC50 ([4]; HOP-18, NSCL, read-out: Anti-Proliferative activity IC50): 0.0092 µM; IC50 ([5]; RPMI-8226, Myeloma, read-out: Anti-Proliferative activity IC50): 0.0182 µM; IC50 ([6]; P388, Leukemia, read-out: Anti-Proliferative activity IC50): > 1 µM; IC50 ([7]; SNB-78, CNS, read-out: Anti-Proliferative activity IC50): 0.0101 µM; plasma half-life in human ([14]; human, according to the literature): about 40 hours; max. plasma concentration ([14]; in vivo): about 0.1 μg/mL
